This note sets out measurements from USRE47689E1, “Compounds for treating spinal muscular atrophy” (PTC Therapeutics, Inc., priority 2011, dated 2019).

Series [1] has as its system SMN2 minigene (full length SMN2 minigene mRNA containing SMN2 exon 7). Kind of series: SMN2 minigene mRNA splicing RT-qPCR assay in cultured cells. Particulars: Homo sapiens, HEK293-H, read-out: EC1.5x for production of full length SMN2 mRNA. Type of series: cell-based, human. The procedure, abridged: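 Lysates → one-step RT-qPCR, minigene-specific primers (0.4 μM final) + GAPDH multiplex, 40 cycles. FL/GAPDH vs DMSO; EC1.5x, star-binned.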
Background: Real-time PCR tracks product formation cycle by cycle.

The test system of the next series is Smn protein. In words: Smn protein assay in cultured cells (SMN HTRF). Type of series: cell-based, human. Particulars: for EC1.5x (concentration giving 1.5-fold Smn protein increase): read-out: EC1.5x for Smn protein expression. The procedure, abridged:
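Smn in SMA fibroblast lysates, measured by anti-SMN HTRF after 48 h compound exposure; EC1.5x from fold change over vehicle.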
A general note: Time-resolved FRET reads energy transfer from a long-lived donor to a nearby acceptor.

Where [2] appears, read: HEK293H cells stably transfected with SMN2-A minigene, 24 hours, 7-point concentration curve, 1.5-fold relative to vehicle-treated cells.
Where [3] appears, read: SMA patient fibroblast cells, 48 hours, 7-point concentration data, fold increase relative to vehicle control (SMN HTRF).
The mark [4] stands for this setting: SMA Type 1 patient fibroblast cells (GM03813), 48 hours, 7-point concentration curve, SMN HTRF, concentration producing 1.5 times Smn protein vs DMSO vehicle control.

SMILES strings stand for the structures. Like-named read-outs stand apart in the source and are kept apart here. Some results are limits rather than exact numbers.

For orientation: melting point means the temperature, or range, at which the solid turns liquid. `Cc1ccn2cc(-c3cc4ccc(N5C[C@@H](C)N[C@@H](C)C5)cc4oc3=O)nc2n1` [Compound 225, 7-[(3R,5S)-3,5-dimethylpiperazin-1-yl]-3-(7-methylimidazo[1,2-a]pyrimidin-2-yl)-2H-chromen-2-one] displayed a melting point of 246 to 252 °C. Besides, in series [1] (setting [2]), the EC (1.5-fold) was 0.3 to 1 µM. Also, the “maximum fold (Fold) increase of Smn protein” value (“maximum fold (Fold) increase” below) in the series on Smn protein (setting [3]) is “*** (fold increase between >1.35 and ≤1.5)”.
In turn, `Cc1cn2cc(-c3cc4ccc(N5CCC(NC6CCC6)CC5)cc4oc3=O)nc2c(C)n1` [Compound 924, 7-[4-(cyclobutylamino)piperidin-1-yl]-3-(6,8-dimethylimidazo[1,2-a]pyrazin-2-yl)-2H-chromen-2-one] came in with a melting point of 222 to 225 °C. Besides, in series [1] (setting [2]), the EC (1.5-fold) was less than 0.1 µM. The EC1.5x (concentration giving 1.5-fold Smn protein increase) in the series with Smn protein (setting [4]) was less than 300 nM. For the same compound, the “maximum fold (Fold) increase” value in the series on Smn protein (setting [3]) was “**** (fold increase between >1.5 and ≤1.65)”.
Take `COc1c(F)cc(F)cc1-c1cc2ccc(N3C[C@@H](C)N[C@@H](C)C3)cc2oc1=O` [Compound 540, 3-(3,5-difluoro-2-methoxyphenyl)-7-[(3R,5S)-3,5-dimethylpiperazin-1-yl]-2H-chromen-2-one]: the melting point lay within 109 to 111 °C. In series [1] (setting [2]), the EC (1.5-fold) fell in the range of 3 to 30 µM. Also, the “maximum fold (Fold) increase” value in the series on Smn protein (setting [3]) is on record as “* (maximum fold increase of ≤1.2)”.
Compound `Cc1cn2cc(-c3cc4ccc(OCCN5CCCC5)cc4oc3=O)nc2c(C)n1` [Cpd 918, 3-(6,8-dimethylimidazo[1,2-a]pyrazin-2-yl)-7-[2-(pyrrolidin-1-yl)ethoxy]-2H-chromen-2-one] returned a melting point of 201 to 203 °C. For the same compound, in series [1] (setting [2]), the EC (1.5-fold) is less than 0.1 µM. Besides, in the series with Smn protein (setting [4]), the EC1.5x (concentration giving 1.5-fold Smn protein increase) fell in the range of 300 to 1000 nM. Also, in the series on Smn protein (setting [3]), the “maximum fold (Fold) increase” value was “**** (fold increase between >1.5 and ≤1.65)”.
Regarding `Cc1nccn2cc(-c3cc4ccc(N5CCN[C@H](C)C5)cc4oc3=O)cc12` [Compound 586, 7-[(3R)-3-methylpiperazin-1-yl]-3-(1-methylpyrrolo[1,2-a]pyrazin-7-yl)-2H-chromen-2-one], the melting point is 212 to 215 °C. The EC (1.5-fold) in series [1] (setting [2]) was less than 0.1 µM. Moreover, the EC1.5x (concentration giving 1.5-fold Smn protein increase) in the series on Smn protein (setting [4]) was less than 300 nM. Moreover, in the series on Smn protein (setting [3]), the “maximum fold (Fold) increase” value was “*** (fold increase between >1.35 and ≤1.5)”.
As to `Cc1ccn2cc(-c3cc4ccc(N5CCNC6(CCC6)C5)cc4oc3=O)nc2c1` [Compound 595, 7-(5,8-diazaspiro[3.5]non-8-yl)-3-(7-methylimidazo[1,2-a]pyridin-2-yl)-2H-chromen-2-one], the melting point is 226 to 233 °C. The EC (1.5-fold) in series [1] (setting [2]) lay within 0.3 to 1 µM. Further, the “maximum fold (Fold) increase” value in the series on Smn protein (setting [3]) is “** (fold increase between >1.2 and ≤1.35)”.
`Cc1cn2cc(-c3cc4ccc(N5CCN6CCCCC6C5)cc4oc3=O)cc2c(C)n1` (centres unmarked) [Compound 683, 3-(1,3-dimethylpyrrolo[1,2-a]pyrazin-7-yl)-7-(octahydro-2H-pyrido[1,2-a]pyrazin-2-yl)-2H-chromen-2-one] had a melting point of 145 to 148 °C. For the same compound, the EC (1.5-fold) in series [1] (setting [2]) was less than 0.1 µM. In addition, in the series with Smn protein (setting [4]), the EC1.5x (concentration giving 1.5-fold Smn protein increase) was less than 300 nM. Besides, in the series on Smn protein (setting [3]), the “maximum fold (Fold) increase” value is “**** (fold increase between >1.5 and ≤1.65)”.
As to `C[C@@H]1CN(c2ccc3cc(-c4cn5cc(C6CC6)cc(F)c5n4)c(=O)oc3c2)CCN1` [Compound 503, 3-(6-cyclopropyl-8-fluoroimidazo[1,2-a]pyridin-2-yl)-7-[(3R)-3-methylpiperazin-1-yl]-2H-chromen-2-one], the melting point lay within 254 to 264 °C. Besides, the EC (1.5-fold) in series [1] (setting [2]) is 0.3 to 1 µM. The “maximum fold (Fold) increase” value in the series on Smn protein (setting [3]) was “* (maximum fold increase of ≤1.2)”.
`Cc1cn2cc(-c3cc4ccc(C5CCN(C6COC6)CC5)cc4oc3=O)nc2c(C)n1` [Compound 855, 3-(6,8-dimethylimidazo[1,2-a]pyrazin-2-yl)-7-[1-(oxetan-3-yl)piperidin-4-yl]-2H-chromen-2-one]: the melting point lay in the range of 217 to 223 °C. In series [1] (setting [2]), the EC (1.5-fold) is less than 0.1 µM. For the same compound, the EC1.5x (concentration giving 1.5-fold Smn protein increase) in the series on Smn protein (setting [4]) is less than 300 nM. In the series on Smn protein (setting [3]), the “maximum fold (Fold) increase” value is recorded as “***** (fold increase >1.65)”.
In turn, `CN1CCN(c2ccc3cc(-c4cn(C)c5ccccc45)c(=O)oc3c2)CC1` [Compound 259, 3-(1-methyl-1H-indol-3-yl)-7-(4-methylpiperazin-1-yl)-2H-chromen-2-one] displayed a melting point of 185 to 187 °C. The EC (1.5-fold) in series [1] (setting [2]) was 1 to 3 µM. In the series with Smn protein (setting [3]), the “maximum fold (Fold) increase” value is “* (maximum fold increase of ≤1.2)”.
`CN1CCCN(c2ccc3cc(-c4cn5cnccc5n4)c(=O)oc3c2)CC1` [Compound 460, 3-(imidazo[1,2-c]pyrimidin-2-yl)-7-(4-methyl-1,4-diazepan-1-yl)-2H-chromen-2-one] displayed a melting point of 225 to 227 °C. Also, the EC (1.5-fold) in series [1] (setting [2]) lay within 0.1 to 0.3 µM. Also, in the series on Smn protein (setting [4]), the EC1.5x (concentration giving 1.5-fold Smn protein increase) lay in the range of 3000 to 10000 nM. Further, in the series with Smn protein (setting [3]), the “maximum fold (Fold) increase” value was “*** (fold increase between >1.35 and ≤1.5)”.
`Cc1cn2cc(-c3cc4ccc(C5=CCN(CCO)CC5)cc4oc3=O)nc2c(C)n1` [Compound 801, 3-(6,8-dimethylimidazo[1,2-a]pyrazin-2-yl)-7-[1-(2-hydroxyethyl)-1,2,3,6-tetrahydropyridin-4-yl]-2H-chromen-2-one] gave a melting point of 172 to 214 °C. The EC (1.5-fold) in series [1] (24 h) was less than 0.1 µM. For the same compound, in the series with Smn protein, the “maximum fold (Fold) increase” value is “**** (key: *: maximum fold increase of ≤1.2; **: fold increase between >1.2 and ≤1.35; ***: fold increase between >1.35 and ≤1.5; ****: fold increase between >1.5 and ≤1.65; *****: fold increase >1.65)”; the EC1.5x (concentration giving 1.5-fold Smn protein increase) was less than 300 nM.
For `Cc1ccn2nc(-c3cc4ccc(N5CCN[C@H](C)C5)cc4oc3=O)cc2c1` [Compound 306, 7-[(3R)-3-methylpiperazin-1-yl]-3-(5-methylpyrazolo[1,5-a]pyridin-2-yl)-2H-chromen-2-one], the melting point is 183 to 187 °C. Moreover, the EC (1.5-fold) in series [1] (setting [2]) lay in the range of 0.1 to 0.3 µM. For the same compound, the “maximum fold (Fold) increase” value in the series with Smn protein (setting [3]) is “*** (fold increase between >1.35 and ≤1.5)”.
`CNCCc1ccc2cc(-c3cn4cc(C)nc(C)c4n3)c(=O)oc2c1` [Compound 911, 3-(6,8-dimethylimidazo[1,2-a]pyrazin-2-yl)-7-[2-(methylamino)ethyl]-2H-chromen-2-one] returned a melting point of 204 to 208 °C. The EC (1.5-fold) in series [1] (setting [2]) was less than 0.1 µM. The EC1.5x (concentration giving 1.5-fold Smn protein increase) in the series with Smn protein (setting [4]) was less than 300 nM. For the same compound, the “maximum fold (Fold) increase” value in the series with Smn protein (setting [3]) is “***** (fold increase >1.65)”.
Turning to `Cc1ccnc(Nc2cc3ccc(N4CCNCC4)cc3oc2=O)c1` [Compound 62, 3-[(4-methylpyridin-2-yl)amino]-7-(piperazin-1-yl)-2H-chromen-2-one], the melting point is 182 to 185 °C. In series [1] (setting [2]), the EC (1.5-fold) fell in the range of 1 to 3 µM. The “maximum fold (Fold) increase” value in the series on Smn protein (setting [3]) is listed as “* (maximum fold increase of ≤1.2)”.
Turning to `O=c1oc2cc(N3CCNCC3)ccc2cc1-c1cccnc1` [Compound 12, 7-(piperazin-1-yl)-3-(pyridin-3-yl)-2H-chromen-2-one], the melting point lay within 170 to 172 °C. In addition, in series [1] (24 h), the EC (1.5-fold) was 3 to 30 µM. Besides, the “maximum fold (Fold) increase” value in the series on Smn protein (setting [3]) is given as “* (maximum fold increase of ≤1.2)”.
The compound `Cc1nc(Cl)cn2cc(-c3cc4ccc(N5CCN(C)[C@H](C)C5)cc4oc3=O)nc12` [Compound 726, 3-(6-chloro-8-methylimidazo[1,2-a]pyrazin-2-yl)-7-[(3R)-3,4-dimethylpiperazin-1-yl]-2H-chromen-2-one] registered a melting point of 250 to 252 °C. In series [1] (setting [2]), the EC (1.5-fold) was less than 0.1 µM. For the same compound, the EC1.5x (concentration giving 1.5-fold Smn protein increase) in the series on Smn protein (setting [4]) lay in the range of 300 to 1000 nM. Further, in the series on Smn protein (setting [3]), the “maximum fold (Fold) increase” value is “**** (fold increase between >1.5 and ≤1.65)”.
As to `Cc1cc(F)c2nc(-c3cc4ccc(N5CCN6CCC[C@H]6C5)cc4oc3=O)cn2c1` [Compound 560, 3-(8-fluoro-6-methylimidazo[1,2-a]pyridin-2-yl)-7-[(8aS)-hexahydropyrrolo[1,2-a]pyrazin-2(1H)-yl]-2H-chromen-2-one], the melting point lay within 296 to 306 °C. Besides, the EC (1.5-fold) in series [1] (setting [2]) was in the range of 0.1 to 0.3 µM. The EC1.5x (concentration giving 1.5-fold Smn protein increase) with Smn protein (setting [4]) was less than 300 nM. Also, in the series with Smn protein (setting [3]), the “maximum fold (Fold) increase” value was “**** (fold increase between >1.5 and ≤1.65)”.
On to `Cc1nn2cc(-c3cc4ccc(N5CCCNCC5)cc4oc3=O)nc2s1` [Compound 450, 7-(1,4-diazepan-1-yl)-3-(2-methylimidazo[2,1-b][1,3,4]thiadiazol-6-yl)-2H-chromen-2-one], for which the melting point is 215 to 218 °C. In addition, the EC (1.5-fold) in series [1] (setting [2]) was 1 to 3 µM. Moreover, the EC1.5x (concentration giving 1.5-fold Smn protein increase) in the series on Smn protein (setting [4]) lay in the range of 1000 to 3000 nM. Moreover, in the series on Smn protein (setting [3]), the “maximum fold (Fold) increase” value is “*** (fold increase between >1.35 and ≤1.5)”.
Take `C[C@@H]1CN(c2ccc3cc(-c4cn5cccc(Cl)c5n4)c(=O)oc3c2)CCN1` [Compound 183, 3-(8-chloroimidazo[1,2-a]pyridin-2-yl)-7-[(3R)-3-methylpiperazin-1-yl]-2H-chromen-2-one]: the melting point lay within 215 to 218 °C. Moreover, the EC (1.5-fold) in series [1] (setting [2]) lay within 0.3 to 1 µM. Moreover, in the series on Smn protein (setting [3]), the “maximum fold (Fold) increase” value was “** (fold increase between >1.2 and ≤1.35)”.
